In the supplement of paper PMC10307832:

Assays:
Experiment in all cases: relative viability (nuclei count vs DMSO), 5 days (fraction); higher = more cells survive
NCI-H838 = tested on: NCI-H838
Method in brief: (§1)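 Medians of duplicate plates are given as relative viability. That measure is the nuclei count in treated wells divided by the count in vehicle wells. Counts were taken on 4× images of lung cancer cell lines in 1536-well plates, 5 days after pin-tool dosing the day after seeding with one drug alone or a fixed anchor-drug dose plus five library-drug doses (not always all listed) in √10 steps.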

UMC-11 = tested on: UMC-11
Method in brief: as §1

HCC-15 = tested on: HCC-15
Method in brief: as §1

NCI-H1666 = tested on: NCI-H1666
Method in brief: as §1

LU99A = tested on: LU99A
Method in brief: as §1

LC-2-ad = tested on: LC-2-ad
Method in brief: as §1

SK-MES-1 = tested on: SK-MES-1
Method in brief: as §1

LCLC-97TM1 = tested on: LCLC-97TM1
Method in brief: as §1

ChaGo-K-1 = tested on: ChaGo-K-1
Method in brief: as §1

BEN = tested on: BEN
Method in brief: as §1

NCI-H661 = tested on: NCI-H661
Method in brief: as §1

HCC-78 = tested on: HCC-78
Method in brief: as §1

NCI-H596 = tested on: NCI-H596
Method in brief: as §1

NCI-H322M = tested on: NCI-H322M
Method in brief: as §1

NCI-H1651 = tested on: NCI-H1651
Method in brief: as §1

NCI-H650 = tested on: NCI-H650
Method in brief: as §1

LXF-289 = tested on: LXF-289
Method in brief: as §1

NCI-H2342 = tested on: NCI-H2342
Method in brief: as §1

NCI-H358 = tested on: NCI-H358
Method in brief: as §1

PC-3 [JPC-3] = tested on: PC-3 [JPC-3]
Method in brief: as §1

LK-2 = tested on: LK-2
Method in brief: as §1

NCI-H2087 = tested on: NCI-H2087
Method in brief: as §1

NCI-H1944 = tested on: NCI-H1944
Method in brief: as §1

`CC1(C)CCC(c2ccc(Cl)cc2)=C(CN2CCN(c3ccc(C(=O)NS(=O)(=O)c4ccc(N[C@H](CCN5CCOCC5)CSc5ccccc5)c(S(=O)(=O)C(F)(F)F)c4)cc3)CC2)C1` [Navitoclax] + O=C(c1cc(Cc2n[nH]c(=O)c3ccccc23)ccc1F)N1CCN(C(=O)C2CC2)CC1 [Olaparib] (partner 8 µM) was tested, and the relative viability (NCI-H838; first compound 0.005 µM) was 0.775, the relative viability (NCI-H838; first compound 0.01581 µM) was 0.818 and the relative viability (NCI-H838; first compound 0.05 µM) was 0.834. It also gave a relative viability (NCI-H838; first compound 0.1581 µM) of 0.775, a relative viability (NCI-H838; first compound 0.5 µM) of 0.768 and a relative viability (UMC-11; first compound 0.005 µM) of 0.89. The relative viability (UMC-11; first compound 0.01581 µM) was 0.361, the relative viability (UMC-11; first compound 0.05 µM) was 0.346 and the relative viability (UMC-11; first compound 0.1581 µM) was 0.317. It also gave a relative viability (UMC-11; first compound 0.5 µM) of 0.266, a relative viability (HCC-15; first compound 0.005 µM) of 0.716 and a relative viability (HCC-15; first compound 0.01581 µM) of 0.787. It also gave a relative viability (HCC-15; first compound 0.05 µM) of 0.626, a relative viability (HCC-15; first compound 0.1581 µM) of 0.67 and a relative viability (HCC-15; first compound 0.5 µM) of 0.778. The relative viability (NCI-H1666; first compound 0.005 µM) was 0.749, the relative viability (NCI-H1666; first compound 0.01581 µM) was 0.71 and the relative viability (NCI-H1666; first compound 0.05 µM) was 0.683. It also gave a relative viability (NCI-H1666; first compound 0.1581 µM) of 0.765, a relative viability (NCI-H1666; first compound 0.5 µM) of 0.822 and a relative viability (LU99A; first compound 0.005 µM) of 0.257. The relative viability (LU99A; first compound 0.01581 µM) was 0.275, the relative viability (LU99A; first compound 0.1581 µM) was 0.269 and the relative viability (LU99A; first compound 0.5 µM) was 0.276. It also gave a relative viability (LC-2-ad; first compound 0.005 µM) of 0.729, a relative viability (LC-2-ad; first compound 0.01581 µM) of 0.744 and a relative viability (LC-2-ad; first compound 0.05 µM) of 0.654. It also gave a relative viability (LC-2-ad; first compound 0.1581 µM) of 0.698, a relative viability (LC-2-ad; first compound 0.5 µM) of 0.701 and a relative viability (SK-MES-1; first compound 0.005 µM) of 0.648. It also gave a relative viability (SK-MES-1; first compound 0.01581 µM) of 0.677, a relative viability (SK-MES-1; first compound 0.05 µM) of 0.775 and a relative viability (SK-MES-1; first compound 0.1581 µM) of 0.636. It also gave a relative viability (SK-MES-1; first compound 0.5 µM) of 0.814, a relative viability (LCLC-97TM1; first compound 0.005 µM) of 0.34 and a relative viability (LCLC-97TM1; first compound 0.01581 µM) of 0.599. The relative viability (LCLC-97TM1; first compound 0.05 µM) was 0.243, the relative viability (LCLC-97TM1; first compound 0.1581 µM) was 0.409 and the relative viability (LCLC-97TM1; first compound 0.5 µM) was 0.445. It also gave a relative viability (ChaGo-K-1; first compound 0.005 µM) of 0.445, a relative viability (ChaGo-K-1; first compound 0.01581 µM) of 0.472 and a relative viability (ChaGo-K-1; first compound 0.05 µM) of 0.28. The relative viability (ChaGo-K-1; first compound 0.1581 µM) was 0.453, the relative viability (ChaGo-K-1; first compound 0.5 µM) was 0.461 and the relative viability (BEN; first compound 0.005 µM) was 1.07. It also gave a relative viability (BEN; first compound 0.01581 µM) of 1.06, a relative viability (BEN; first compound 0.05 µM) of 0.862 and a relative viability (BEN; first compound 0.1581 µM) of 1.05. It also gave a relative viability (BEN; first compound 0.5 µM) of 0.595, a relative viability (NCI-H661; first compound 0.005 µM) of 0.751 and a relative viability (NCI-H661; first compound 0.01581 µM) of 0.797. For the same compound, the relative viability (NCI-H661; first compound 0.05 µM) was 0.712, the relative viability (NCI-H661; first compound 0.1581 µM) was 0.695 and the relative viability (NCI-H661; first compound 0.5 µM) was 0.751. It also gave a relative viability (HCC-78; first compound 0.005 µM) of 0.844, a relative viability (HCC-78; first compound 0.01581 µM) of 0.776 and a relative viability (HCC-78; first compound 0.05 µM) of 0.696. It also gave a relative viability (HCC-78; first compound 0.1581 µM) of 0.925, a relative viability (HCC-78; first compound 0.5 µM) of 0.863 and a relative viability (NCI-H596; first compound 0.005 µM) of 0.663. It also gave a relative viability (NCI-H596; first compound 0.01581 µM) of 0.758, a relative viability (NCI-H596; first compound 0.05 µM) of 0.533 and a relative viability (NCI-H596; first compound 0.1581 µM) of 0.598. The relative viability (NCI-H596; first compound 0.5 µM) was 0.626, the relative viability (NCI-H322M; first compound 0.005 µM) was 0.8 and the relative viability (NCI-H322M; first compound 0.01581 µM) was 0.984. It also gave a relative viability (NCI-H322M; first compound 0.05 µM) of 0.754, a relative viability (NCI-H322M; first compound 0.1581 µM) of 0.725 and a relative viability (NCI-H322M; first compound 0.5 µM) of 0.934. It also gave a relative viability (NCI-H1651; first compound 0.005 µM) of 0.167, a relative viability (NCI-H1651; first compound 0.01581 µM) of 0.181 and a relative viability (NCI-H1651; first compound 0.05 µM) of 0.152. It also gave a relative viability (NCI-H1651; first compound 0.1581 µM) of 0.189, a relative viability (NCI-H1651; first compound 0.5 µM) of 0.197 and a relative viability (NCI-H650; first compound 0.005 µM) of 0.395. The relative viability (NCI-H650; first compound 0.01581 µM) was 0.453, the relative viability (NCI-H650; first compound 0.05 µM) was 0.35 and the relative viability (NCI-H650; first compound 0.1581 µM) was 0.362. For the same compound, the relative viability (NCI-H650; first compound 0.5 µM) was 0.386, the relative viability (LXF-289; first compound 0.005 µM) was 1.01 and the relative viability (LXF-289; first compound 0.01581 µM) was 1.12. The relative viability (LXF-289; first compound 0.05 µM) was 0.88, the relative viability (LXF-289; first compound 0.1581 µM) was 0.888 and the relative viability (LXF-289; first compound 0.5 µM) was 1.08. For the same compound, the relative viability (NCI-H2342; first compound 0.005 µM) was 0.421, the relative viability (NCI-H2342; first compound 0.01581 µM) was 0.44 and the relative viability (NCI-H2342; first compound 0.05 µM) was 0.322. For the same compound, the relative viability (NCI-H2342; first compound 0.1581 µM) was 0.476, the relative viability (NCI-H2342; first compound 0.5 µM) was 0.456 and the relative viability (NCI-H358; first compound 0.005 µM) was 0.566. The relative viability (NCI-H358; first compound 0.01581 µM) was 0.751, the relative viability (NCI-H358; first compound 0.05 µM) was 0.663 and the relative viability (NCI-H358; first compound 0.1581 µM) was 0.536. For the same compound, the relative viability (NCI-H358; first compound 0.5 µM) was 0.585, the relative viability (PC-3 [JPC-3]; first compound 0.005 µM) was 1.1 and the relative viability (PC-3 [JPC-3]; first compound 0.01581 µM) was 1.14. It also gave a relative viability (PC-3 [JPC-3]; first compound 0.05 µM) of 1.22, a relative viability (PC-3 [JPC-3]; first compound 0.1581 µM) of 1.07 and a relative viability (PC-3 [JPC-3]; first compound 0.5 µM) of 0.871. The relative viability (LK-2; first compound 0.005 µM) was 0.797, the relative viability (LK-2; first compound 0.01581 µM) was 0.744 and the relative viability (LK-2; first compound 0.05 µM) was 0.618. The relative viability (LK-2; first compound 0.1581 µM) was 0.726, the relative viability (LK-2; first compound 0.5 µM) was 0.798 and the relative viability (NCI-H2087; first compound 0.005 µM) was 0.69. It also gave a relative viability (NCI-H2087; first compound 0.01581 µM) of 0.632, a relative viability (NCI-H2087; first compound 0.1581 µM) of 0.638 and a relative viability (NCI-H2087; first compound 0.5 µM) of 0.598. It also gave a relative viability (NCI-H1944; first compound 0.005 µM) of 0.383, a relative viability (NCI-H1944; first compound 0.01581 µM) of 0.403 and a relative viability (NCI-H1944; first compound 0.1581 µM) of 0.412. It also gave a relative viability (NCI-H1944; first compound 0.5 µM) of 0.401.
